Patent publication US6987093B2 (priority 2001, dated 2006)
Values after ≈ are worked out from the molar mass of the structure shown. Values joined by “and” are separate entries in the source; they are usually repeats but may differ in a detail not shown here. Equal values may be shown once.

Tests used:
S. pneumoniae isolates = test: Susceptibility (MIC) testing of trial S. pneumoniae isolates with PCR of resistance mechanism; type: cell-based, Streptococcus pneumoniae; details: Streptococcus pneumoniae
Source text: (§1) Samples of middle ear fluid were split for storage at a central laboratory and cultured locally. All pathogens isolated locally were subcultured and sent to a central laboratory for confirmation and susceptibility testing, performed by Kirby-Bauer disk-diffusion or MIC testing according to NCCLS standards.
Polymerase chain reaction (PCR) determination of resistance mechanisms in all the azithromycin-resistant pneumococci was done.
(§2) Cultures were taken for antimicrobial susceptibility testing and bacterial species were identified. Current NCCLS approved breakpoints for MICs and zone sizes were applied to all data irrespective of the breakpoint in use at the time of the study. The isolates from the clinical studies were sent to central laboratories for identification and susceptibility determination. The methods for agar diffusion disk tests are those recommended by NCCLS.
(§3) The susceptibility breakpoints for azithromycin were defined as follows: […]

M. catarrhalis = test: Susceptibility testing of trial M. catarrhalis isolates; type: cell-based, Moraxella catarrhalis; details: NCCLS criteria
Source text: as §1, §2, §3

[1] = tested on: Streptococcus pneumoniae 02J1016; test: Murine lung (pulmonary/pneumonia) infection model challenged with Streptococcus pneumoniae; type: in vivo, mouse
[2] = tested on: Streptococcus pneumoniae 02J1016; test: Murine peritonitis model, Streptococcus pneumoniae; type: in vivo, mouse; details: oral QD
S. pneumoniae = test: Study 95-001 otitis media, S. pneumoniae as baseline pathogen; type: in vivo, human; details: five patients in azithromycin regimens with S. pneumoniae isolates with intermediate resistance
Description: (§4) Specimens for culture and susceptibility testing were obtained from the infected ear by tympanocentesis within 24 h of start of therapy. […] However, the study was evaluated using the breakpoints in the most recent set of guidelines.
(§5) To be a bacteriological cure, the MITT subject had to have a positive culture from the middle ear for S. pneumoniae, H influenzae, or M. catarrhalis. Eradication was defined as presumed eradication of pretreatment pathogen(s) based on signs/symptoms or unavailability of culturable material. All evaluable patients had only one of the bacterial species present at baseline. There was no bacteriological response data collected for 95–001. However, the clinical outcome by bacterial pathogen at follow-up (approximately 28 days after first visit) was collected. For patients with S. pneumoniae as the baseline pathogen, all treatment arms yielded 100% clinical cure when the investigators' evaluations that were missing are not included in the analysis. […] The comparator drug, ceftriaxone, had no failures out of 9 patients.

M catarrhalis = test: Study 95-001 otitis media, M. catarrhalis; type: in vivo, human; details: 3-day dosing regimen
Description: as §4, §5

Chlamydia trachomatis = details: azithromycin (± an anti-inflammatory agent); cited from earlier work
[3] = oral QD, murine pneumonia model

For `CC[C@H]1OC(=O)[C@H](C)[C@@H](O[C@H]2C[C@@](C)(OC)[C@@H](O)[C@H](C)O2)[C@H](C)[C@@H](O[C@@H]2O[C@H](C)C[C@H](N(C)C)[C@H]2O)[C@](C)(O)C[C@@H](C)CN(C)[C@H](C)[C@@H](O)[C@]1(C)O` [Azithromycin, 9a-aza-9a-methyl-9-deoxo-9a-homoerythromycin A], the MIC (S. pneumoniae isolates; macrolide-resistant S. pneumoniae isolates containing the erm B gene) was greater than 256 µg/mL, the MIC (S. pneumoniae isolates; macrolide-resistant S. pneumoniae isolates containing the mef A gene) was 8 µg/mL (≈ 10.7 µM) and the “susceptibility of isolated M. catarrhalis to azithromycin” value (M. catarrhalis) was “susceptible”. For the same molecule, the “Oral PD50” value ([1]; Dosing Regimen 1 day) was 20.4 (16.4–24.3) mg/kg/day, the “Oral PD50” value ([1]; Dosing Regimen 2 days) was 27.6 (22.8–32.4) mg/kg/day and the “Oral PD50” value ([1]; Dosing Regimen 3 days) was 49.4 (28.1–70.8) mg/kg/day. The “Mice Surviving/Total” value ([1]; mouse, in vivo) was 0/10 and 10/10 and 7/10 and 1/10 and 9/10 and 4/10, the “ED50 One-Day Therapy” value [1, 3] was 20^1 mg/kg/therapy and the “ED50 Three-Day Therapy” value [1, 3] was 49 mg/kg/therapy. For the same molecule, the “ED50 Two-Day Therapy” value [1, 3] was 27 mg/kg/therapy, the “ED50 One-Day Therapy” value [2] was 8.7^1 mg/kg/therapy and the “ED50 Three-Day Therapy” value [2] was 15.1 mg/kg/therapy. For the same molecule, the “ED50 Two-Day Therapy” value [2] was 7.6 mg/kg/therapy, the “clinical outcomes at EOT or follow-up” value (S. pneumoniae) was “either “cure” or “improvement”” and the “outcome at follow-up of the two M catarrhalis isolates” value (M catarrhalis) was “presumed bacteriological cures”. For the same molecule, the preserving fertility (Chlamydia trachomatis) was “superior to doxycycline and ofloxacin combinations”.
